Columns and labels:
KRas G12S = KRas G12S (Homo sapiens, UniProt P01116, G12S); assay type: binding; settings: TR-FRET displacement, read-out: Binding to KRas (IC50 nM) G12S
KRas G12C = KRas G12C (Homo sapiens, UniProt P01116, G12C); assay type: binding; settings: TR-FRET displacement, read-out: Binding to KRas (IC50 nM) G12C
KRas Q61H = KRas Q61H (Homo sapiens, UniProt P01116, Q61H); experiment: KRas binding assay (TR-FRET displacement), KRas Q61H; settings: TR-FRET displacement
KRas G12V = KRas G12V (Homo sapiens, UniProt P01116, G12V); experiment: biochemical; settings: Binding to KRas (IC50 nM) G12V, TR-FRET displacement, KRas G12V
Chain of KRas G12V (P01116 1-169 isoform P01116-2 G12V): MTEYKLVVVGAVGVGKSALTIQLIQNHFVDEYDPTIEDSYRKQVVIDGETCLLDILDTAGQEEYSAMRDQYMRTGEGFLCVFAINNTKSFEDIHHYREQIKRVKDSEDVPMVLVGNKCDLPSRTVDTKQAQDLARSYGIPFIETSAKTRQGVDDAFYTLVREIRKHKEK

KRas G12A = KRas G12A (Homo sapiens, UniProt P01116, G12A); assay type: binding; settings: TR-FRET displacement, read-out: Binding to KRas (IC50 nM) G12A
Chain of KRas G12A (P01116 1-169 isoform P01116-2 G12A): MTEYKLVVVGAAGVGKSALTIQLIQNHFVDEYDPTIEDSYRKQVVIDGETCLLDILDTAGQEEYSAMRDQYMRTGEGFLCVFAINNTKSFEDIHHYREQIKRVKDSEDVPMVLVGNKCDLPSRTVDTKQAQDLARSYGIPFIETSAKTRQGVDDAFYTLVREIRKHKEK

KRas G12D = KRas G12D (Homo sapiens, UniProt P01116, G12D); experiment: biochemical; settings: Binding to KRas (IC50 nM) G12D, TR-FRET displacement, KRas G12D
Chain of KRas G12D (P01116 1-169 isoform P01116-2 G12D): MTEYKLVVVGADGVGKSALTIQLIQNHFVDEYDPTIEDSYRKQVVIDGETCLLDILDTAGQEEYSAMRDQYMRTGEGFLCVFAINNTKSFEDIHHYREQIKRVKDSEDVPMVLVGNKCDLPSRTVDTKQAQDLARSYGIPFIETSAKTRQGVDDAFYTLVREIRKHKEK

KRas G13D = KRas G13D (Homo sapiens, UniProt P01116, G13D); assay type: binding; settings: TR-FRET displacement, read-out: Binding to KRas (IC50 nM) G13D
Chain of KRas G13D (P01116 1-169 isoform P01116-2 G13D): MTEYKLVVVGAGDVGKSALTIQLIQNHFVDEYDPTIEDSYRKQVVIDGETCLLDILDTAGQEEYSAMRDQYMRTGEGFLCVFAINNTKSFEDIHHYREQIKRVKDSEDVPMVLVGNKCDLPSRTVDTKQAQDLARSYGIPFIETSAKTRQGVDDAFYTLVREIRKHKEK

KRas WT = KRas WT (Homo sapiens, UniProt P01116); experiment: KRas binding assay (TR-FRET displacement), KRas WT; settings: TR-FRET displacement
Chain of KRas WT (P01116 1-169 isoform P01116-2): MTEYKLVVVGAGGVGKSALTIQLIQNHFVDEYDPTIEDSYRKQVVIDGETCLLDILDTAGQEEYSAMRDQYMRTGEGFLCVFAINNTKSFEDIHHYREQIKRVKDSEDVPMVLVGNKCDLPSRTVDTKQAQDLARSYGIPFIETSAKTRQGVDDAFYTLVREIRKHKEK

Chain of KRas G12S (P01116 1-169 isoform P01116-2 G12S): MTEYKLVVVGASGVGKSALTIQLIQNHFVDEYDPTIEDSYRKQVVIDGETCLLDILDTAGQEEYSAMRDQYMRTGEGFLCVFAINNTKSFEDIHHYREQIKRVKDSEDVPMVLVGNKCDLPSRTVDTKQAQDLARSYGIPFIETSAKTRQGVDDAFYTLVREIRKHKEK
Chain of KRas G12C (P01116 1-169 isoform P01116-2 G12C): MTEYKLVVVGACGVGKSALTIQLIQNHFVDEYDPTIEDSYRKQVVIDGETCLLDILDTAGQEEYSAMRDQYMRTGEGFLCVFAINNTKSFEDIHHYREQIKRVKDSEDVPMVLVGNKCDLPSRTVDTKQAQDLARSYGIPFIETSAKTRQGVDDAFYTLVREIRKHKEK
Chain of KRas Q61H (P01116 1-169 isoform P01116-2 Q61H): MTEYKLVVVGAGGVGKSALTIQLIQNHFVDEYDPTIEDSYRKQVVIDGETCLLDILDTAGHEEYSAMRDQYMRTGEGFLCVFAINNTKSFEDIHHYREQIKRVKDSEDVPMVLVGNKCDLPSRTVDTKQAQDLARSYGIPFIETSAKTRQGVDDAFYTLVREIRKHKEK

IC50 (KRas G12S)	IC50 (KRas G12C)	IC50 (KRas Q61H)	IC50 (KRas G12V)	IC50 (KRas G12A)	IC50 (KRas G12D)	IC50 (KRas G13D)	IC50 (KRas WT)	Structure (SMILES)
11900 nM	6900 nM	10700 nM	2520 nM	11700 nM	18300 nM	9890 nM	6320 nM	CCc1cccc2cccc(N3CCc4c(nc(OCC5(CN(C)C)CC5)nc4N(C)CC4CCC(=O)N4)C3)c12 (stereo not drawn) [Example 551, 5-(((2-((1-((dimethylamino)methyl)cyclopropyl)methoxy)-7-(8-ethylnaphthalen-1-yl)-5,6,7,8-tetrahydropyrido[3,4-d]pyrimidin-4-yl)(methyl)amino)methyl)pyrrolidin-2-one]
51000 nM	26100 nM	22900 nM	5640 nM	51400 nM	18400 nM	> 100000 nM	50400 nM	CCc1cccc2cccc(N3CCc4c(nc(OCC5(CN(C)C)CC5)nc4N4CCN(c5ccc(=O)[nH]n5)CC4)C3)c12 [Example 552, 6-(4-(2-((1-((dimethylamino)methyl)cyclopropyl)methoxy)-7-(8-ethylnaphthalen-1-yl)-5,6,7,8-tetrahydropyrido[3,4-d]pyrimidin-4-yl)piperazin-1-yl)pyridazin-3(2H)-one]
3310 nM	1580 nM	7300 nM	2760 nM	2270 nM	18500 nM	7560 nM	5060 nM	CCc1cccc2cccc(N3CCc4c(nc(OCC5(CN(C)C)CC5)nc4N4CC(CO)C(c5cncn5C)C4)C3)c12 (stereo not drawn) [Example 553, (1-(2-((1-((dimethylamino)methyl)cyclopropyl)methoxy)-7-(8-ethylnaphthalen-1-yl)-5,6,7,8-tetrahydropyrido[3,4-d]pyrimidin-4-yl)-4-(1-methyl-1H-imidazol-5-yl)pyrrolidin-3-yl)methanol]
1750 nM	803 nM	1210 nM	3830 nM	2420 nM	18600 nM	2660 nM	2750 nM	CCc1cccc2cccc(N3CCc4c(nc(OCC5(CN(C)C)CC5)nc4NCCc4c(C)n[nH]c4C)C3)c12 [Example 554, N-(2-(3,5-dimethyl-1H-pyrazol-4-yl)ethyl)-2-((1-((dimethylamino)methyl)cyclopropyl)methoxy)-7-(8-ethylnaphthalen-1-yl)-5,6,7,8-tetrahydropyrido[3,4-d]pyrimidin-4-amine]
15000 nM	9190 nM	19700 nM	6180 nM	11900 nM	19000 nM	16400 nM	12200 nM	CCc1cccc2cccc(N3CCc4c(nc(OCC5(CN(C)C)CC5)nc4NCCN4CCNC4=O)C3)c12 [Example 555, 1-(2-((2-((1-((dimethylamino)methyl)cyclopropyl)methoxy)-7-(8-ethylnaphthalen-1-yl)-5,6,7,8-tetrahydropyrido[3,4-d]pyrimidin-4-yl)amino)ethyl)imidazolidin-2-one]
26400 nM	16800 nM	44100 nM	7060 nM	26600 nM	19900 nM	31700 nM	22900 nM	CCc1cccc2cccc(N3CCc4c(nc(OCC5(CN(C)C)CC5)nc4NCc4ncn(-c5ccccc5)n4)C3)c12 [Example 556, 2-((1-((dimethylamino)methyl)cyclopropyl)methoxy)-7-(8-ethylnaphthalen-1-yl)-N-((1-phenyl-1H-1,2,4-triazol-3-yl)methyl)-5,6,7,8-tetrahydropyrido[3,4-d]pyrimidin-4-amine]
83200 nM	44300 nM	77100 nM	5870 nM	71600 nM	20800 nM	96200 nM	67900 nM	CCc1cccc2cccc(N3CCc4c(nc(OCC5(CN(C)C)CC5)nc4N4CCOC(c5nccs5)C4)C3)c12 [Example 557, rel-(R)-1-(1-(((7-(8-(dimenaphthalen-1-yl)-4-(2-(thiazol-2-yl)morpholino)-5,6,7,8-tetrahydropyrido[3,4-d]pyrimidin-2-yl)oxy)methyl)cyclopropyl)-N,N-dimethylmethanamine]
505 nM	492 nM	1710 nM	2920 nM	825 nM	23000 nM	1390 nM	978 nM	CCc1cccc2cccc(N3CCc4c(nc(OCC5(CN(C)C)CC5)nc4N(C)CCn4ccnc4)C3)c12 [Example 558, N-(2-(1H-imidazol-1-yl)ethyl)-2-((1-((dimethylamino)methyl)cyclopropyl)methoxy)-7-(8-ethylnaphthalen-1-yl)-N-methyl-5,6,7,8-tetrahydropyrido[3,4-d]pyrimidin-4-amine]
29400 nM	12000 nM	23300 nM	9180 nM	11900 nM	24700 nM	45100 nM	11900 nM	CCc1cccc2cccc(N3CCc4c(nc(OCC5(CN(C)C)CC5)nc4N4CCCCC(CCOC)C4)C3)c12 (stereo not drawn) [Example 559, 1-(1-(((7-(8-ethylnaphthalen-1-yl)-4-(3-(2-methoxyethyl)azepan-1-yl)-5,6,7,8-tetrahydropyrido[3,4-d]pyrimidin-2-yl)oxy)methyl)cyclopropyl)-N,N-dimethylmethanamine]
7920 nM	5460 nM	17600 nM	3730 nM	6870 nM	24800 nM	18400 nM	6020 nM	CCc1cccc2cccc(N3CCc4c(nc(OCC5(CN(C)C)CC5)nc4N(C)CC4CC(F)C4)C3)c12 (stereo not drawn) [Example 560, 2-((1-((dimethylamino)methyl)cyclopropyl)methoxy)-7-(8-ethylnaphthalen-1-yl)-N-((3-fluorocyclobutyl)methyl)-N-methyl-5,6,7,8-tetrahydropyrido[3,4-d]pyrimidin-4-amine]
536 nM	557 nM	1740 nM	6110 nM	994 nM	25700 nM	2190 nM	1280 nM	CCc1cccc2cccc(N3CCc4c(nc(OCC5(CN(C)C)CC5)nc4NCC4CN(c5ncccn5)C4)C3)c12 [Example 561, 2-((1-((dimethylamino)methyl)cyclopropyl)methoxy)-7-(8-ethylnaphthalen-1-yl)-N-((1-(pyrimidin-2-yl)azetidin-3-yl)methyl)-5,6,7,8-tetrahydropyrido[3,4-d]pyrimidin-4-amine]
6600 nM	4270 nM	14000 nM	6370 nM	7970 nM	25900 nM	21700 nM	10700 nM	CCc1cccc2cccc(N3CCc4c(nc(OCC5(CN(C)C)CC5)nc4N4CCOC(c5nnc(C(C)C)o5)C4)C3)c12 (stereo not drawn) [Example 562, 1-(1-(((7-(8-ethylnaphthalen-1-yl)-4-(2-(5-isopropyl-1,3,4-oxadiazol-2-yl)morpholino)-5,6,7,8-tetrahydropyrido[3,4-d]pyrimidin-2-yl)oxy)methyl)cyclopropyl)-N,N-dimethylmethanamine]
320 nM	697 nM	231 nM	6510 nM	1370 nM	30500 nM	1040 nM	776 nM	CCc1cccc2cccc(N3CCc4c(nc(OCC5(CN(C)C)CC5)nc4NCc4nnc5c(Cl)cccn45)C3)c12 [Example 563, N-((8-chloro-[1,2,4]triazolo[4,3-a]pyridin-3-yl)methyl)-2-((1-((dimethylamino)methyl)cyclopropyl)methoxy)-7-(8-ethylnaphthalen-1-yl)-5,6,7,8-tetrahydropyrido[3,4-d]pyrimidin-4-amine]
14200 nM	8580 nM	4380 nM	3710 nM	11600 nM	29500 nM	7400 nM	6920 nM	CCc1cccc2cccc(N3CCc4c(nc(OCC5(CN(C)C)CC5)nc4N4CCN(c5nc(O)cs5)CC4)C3)c12 [Example 564, 2-(4-(2-((1-((dimethylamino)methyl)cyclopropyl)methoxy)-7-(8-ethylnaphthalen-1-yl)-5,6,7,8-tetrahydropyrido[3,4-d]pyrimidin-4-yl)piperazin-1-yl)thiazol-4-ol]
12900 nM	8620 nM	34400 nM	6620 nM	12200 nM	34300 nM	18900 nM	13000 nM	CCc1cccc2cccc(N3CCc4c(nc(OCC5(CN(C)C)CC5)nc4NCCc4cc(Br)no4)C3)c12 [Example 565, N-(2-(3-bromoisoxazol-5-yl)ethyl)-2-((1-((dimethylamino)methyl)cyclopropyl)methoxy)-7-(8-ethylnaphthalen-1-yl)-5,6,7,8-tetrahydropyrido[3,4-d]pyrimidin-4-amine]
